Series [1] relates to SEB-induced toxic shock in C3H/HeJ mice. As to conditions: mouse, in vivo.
Series [2] relates to SEA-, TSST-1-, SPEA-, and SPEC-stimulated human peripheral blood mononuclear cells. In kind it is cell-based. The note with it: rapamycin 1 μg/mL.
A short description of series [3]: Determination of rapamycin in murine whole blood (HPLC, ion-trap MS). Format: in vivo. As to conditions: mouse; for concentration at 1 h / concentration at 97 h: C3H/HeJ, whole blood; for concentration at 1 h: read-out: blood level of rapamycin. The method, then: Determination of rapamycin in murine whole blood. Blood was collected from rapamycin-treated mice (n=5) by retro-orbital bleeding into EDTA tubes 1 h after intranasal administration of rapamycin. Blood was centrifuged at 12000×g for 3 min to remove cells. Supernatants was removed and stored at −70° C. until analysis. Analysis of rapamycin was performed as previously described (23) using an Agilent Technologies series 1100 Capillary HPLC instrument and ion-trap mass spectrometer.

Series [4] has as its system peripheral blood cells and splenocytes from mice treated with SEB. Nature of the series: Cellular apoptosis by JC-1 fluorescence (flow cytometry) in SEB-treated mice. In kind it is in vivo, mouse. As to conditions: rapamycin 0.16 mg/kg i.n. at 17 h, cells taken 18 h after SEB. The method, then:
Detection of cellular apoptosis by measuring fluorescence of mitochondrial J-aggregates. The loss of mitochondrial permeability, indicative of cellular apoptosis was detected by a fluorescent cationic dye, JC-1 (51). Briefly, peripheral blood or spleens were removed at 18 h from mice treated with SEB, SEB plus 0.16 mg/kg of intranasal rapamycin at 17 h after SEB exposure. Negative controls consisted of mice treated with DMSO at 17 h after saline. Red blood cells from peripheral blood and spleens were lyzed with FACS lyzing buffer (Becton Dickinson, Mountainview, Calif.) prior to staining with JC-1 dye according to manufacturer's instructions (Immunochemistry Technology, Bloomington, Minn.). Flow cytometer (Becton Dickinson) was used to measure cell fluorescence at 530 nm, which represents apoptotic cells.

For series [5] the following is noted: cited from earlier work.
Series [6] deals with SEB-induced proliferation of T cells in PBMC. Briefly: cells. Format: cell-based, human.
Series [7] concerns human PBMC stimulated with SEB. Nature of the series: cells. Format: cell-based. As to conditions: for inhibition at 6.9 µg/mL: Homo sapiens, PBMC, 16 h.
Series [8] relates to lung MCP-1, IL-2 and IL-6 in SEB-exposed mice. The note with it: mouse, in vivo.
Series [9] relates to serum MCP-1, IL-6 and IL-2 in SEB-treated mice. The note with it: mouse, in vivo.
A further series concerns PBMC. Briefly: Trypan Blue exclusion test on PBMC. The note with it: data not shown.

Where two headings read alike, the source gives them in different places.

`C[C@@H]1C[C@H]2[C@@H]3CCC4=CC(=O)C=C[C@]4(C)[C@@]3(F)[C@@H](O)C[C@]2(C)[C@@]1(O)C(=O)CO` [dexamethasone]: the lethality in series [1] is 90%.

Regarding `CO[C@H]1C[C@@H]2CC[C@@H](C)[C@@](O)(O2)C(=O)C(=O)N2CCCC[C@H]2C(=O)O[C@H]([C@H](C)C[C@@H]2CC[C@@H](O)[C@H](OC)C2)CC(=O)[C@H](C)/C=C(\C)[C@@H](O)[C@@H](OC)C(=O)[C@H](C)C[C@H](C)/C=C/C=C/C=C/1C` [rapamycin], the “reduction of superantigen-induced T cell proliferation” value is listed as 74% in series [2] (SEA-stimulated), 68% in [2] (SPEA-stimulated), 69% in [2] (SPEC-stimulated) and 42% in [2] (TSST-1-stimulated). Besides, the concentration at 1 h was 692 ± 406 ng/mL in [3] (other: intranasal followed by intraperitoneal, 1 h after multiple dosing (2 i.n. doses plus 1 i.p. dose)) and 492 ± 204 ng/mL in [3] (other: intranasal, 0.7 mg/kg, 1 h after an i.n. dose of 0.7 mg/kg). The concentration at 97 h was 38 ± 15 ng/mL in series [3] (other: intranasal followed by intraperitoneal, at 97 h, lower doses (0.03 mg/kg i.n. at 2 and 5 h, 0.08 mg/kg i.p. at 24, 48, 72 and 96 h)); 622 ± 282 ng/mL in series [3] (other: intranasal followed by intraperitoneal, at 97 h after multiple dosing (i.n. 0.7 mg/kg at 2 and 5 h, i.p. 1.6 mg/kg at 30, 48, 72 and 96 h)). Besides, the “blood level of rapamycin” value in series [3] (1 h after an i.n. dose of 0.7 mg/kg, 0.7 mg/kg) worked out at 658 ± 408 ng/mL. In addition, the “decrease in number of apoptotic cells” value is given as 66% in series [4] (mouse peripheral blood) and 74% in [4] (mouse spleen). The “blood concentrations of rapamycin” value in [5] (healthy subjects, 1 h after 15 mg of rapamycin) was 78.2 ± 18 ng/mL. Besides, the “blood levels of rapamycin” value in series [5] (renal transplantation, 5 mg/day, at 1.8 h) is 37.4 ± 21 ng/mL. Also, the “reduction of T cell proliferation” value in series [6] was found to be 56%. For the same molecule, the inhibition at 6.9 µg/mL turned out to be 94% in [6] (Homo sapiens, T-cell, 48 h, read-out: inhibition of SEB-induced T cell proliferation (maximal)); 97% in [7] (read-out: inhibition of IL-1β production); 100% in [7] (read-out: inhibition of IL-2 production); 67% in series [7] (read-out: inhibition of IL-6 production); 77% in [7] (read-out: inhibition of TNFα production). In addition, the “suppression of IFNγ” value in series [7] came out at 36%. For the same molecule, the “suppression of IL-2” value in [7] is on record as 34%. The “attenuation of lung IL-2” value in series [8] is listed as 80%. Also, in series [8], the “attenuation of lung IL-6” value was 65%. In [8], the “attenuation of lung MCP-1” value is 56%. Also, the “reduction of peak serum IL-6” value in series [9] is on record as 80%. Also, the “reduction of peak serum MCP-1” value in series [9] worked out at 90%. Moreover, the “cytotoxic effect (Trypan Blue exclusion)” value with PBMC is on record as “not due to cytotoxic effect”. In addition, the “effective in protecting mice from SEB-mediated shock” value in [1] was 100%. The protected in series [1] is reported as 100%. Further, in series [1], the protection is recorded as 20%. Further, in series [1], the weight gain is on record as 8-17%.

Values taken from patent publication US20120252834A1 (priority 2009, published 2012).
